The text below walks through data of patent US20220304958A1, “SMALL MOLECULE INHIBITORS OF A PROTEIN COMPLEX” (THE REGENTS OF THE UNIVERSITY OF CALIFORNIA, priority 2019, published 2022).

T1 sequence (O00522 417-736): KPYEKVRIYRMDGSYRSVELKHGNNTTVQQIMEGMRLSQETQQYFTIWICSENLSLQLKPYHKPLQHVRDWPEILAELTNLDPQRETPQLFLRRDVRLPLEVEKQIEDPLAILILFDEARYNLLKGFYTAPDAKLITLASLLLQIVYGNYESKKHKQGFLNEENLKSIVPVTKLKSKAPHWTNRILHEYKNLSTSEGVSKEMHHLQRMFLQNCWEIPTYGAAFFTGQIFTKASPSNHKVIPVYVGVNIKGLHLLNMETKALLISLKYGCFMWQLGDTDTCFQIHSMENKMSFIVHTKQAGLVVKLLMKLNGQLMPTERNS

One test has as its target T1, HEG1-KRIT1 interaction (Homo sapiens, UniProt O00522).
T1 construct: His6-EGFP-KRIT1 (WT) FERM domain (417-736) and KRIT1 (L717,721A) mutant were cloned into pETM-11; His6 (N); made in house; host or cells: E. coli BL21 Star (DE3)
The experiment in a line: Flow cytometry assay for the HEG1-KRIT1 FERM domain interaction (competition binding on HEG1 matrix beads). The following applies: Table 2; flow cytometry-screening assay; NI = no inhibition detected up to 500 μM. Here is the method:
Bead Coupling. SPHERO Neutravidin Polystyrene Particles, […] (Spherotech) were washed twice with wash buffer (20 mM Tris, 150 mM NaCl. pH 7.4 containing 0.01% NP-40, and 1 mM EDTA). Prior to incubation with biotin-tagged HEG 1 cytoplasmic tail protein, an appropriate volume of bead slurry was passivated to inhibit non-specific binding by incubation for 30 minutes at room temperature in reaction buffer containing 0.1% BSA (20 mM Tris, 150 mM NaCl, pH 7.4 0.01% NP-40, 1 mM EDTA, 1 mM DTT, and 0.1% BSA). Passivated beads were collected by centrifugation, resuspended to 3,600 particles/μl in reaction buffer and biotinylated HEG1 tail was added to a final concentration of 150 nM and incubated overnight on a rotator at 4° C. The beads were washed three times by centrifugation with ice-cold reaction buffer to remove unbound HEG1 peptide. Beads were diluted such that a final concentration of 2000 beads/μL were available for addition to assay plates.
Flow cytometry assay. A final volume of 100 μl containing 140 nM EGFP-KRIT1 FERM domain, with 10% DMSO or 10% compounds in DMSO, was incubated for 15 minutes at room temperature on a rotator. 100 μl of beads were added to the mixture for a final volume of 200 μl at 1,000 particles/μl with 70 nM EGFP-KRIT1 and incubated for 15 minutes at room temperature on a rotator. The control beads were: without KRIT1 (minimum signal); with KRIT1 (maximum signal); and with KRIT1 plus 2 μM HEG1 7-mer (positive blocking control). The EGFP fluorescence was measured using a BD Accuri flow cytometer. For screening purposes, the final volume of the reaction was scaled down to 10 μl and samples were processed as previously described (27). For FIGS. 1D-1F, 2B, and 3E, a representative experiment is shown of at the least 3 independent repeats.
Assay plate assembly. Plate assays were performed in 384-well microtiter plates (Greiner Bio-one, #784101). Reaction buffer. HEG1-coupled beads, and EGFP-KRIT-FERM constructs were added using a MultiFlo™ Microplate Dispenser (BioTek Instruments, Inc.). Compounds were added to single-point assay plates pre-loaded with reaction buffer using a Biomek^NX liquid handler (BeckmanCoulter) equipped with a […] pintool (V & P Scientific, Inc.). Compound libraries were dispensed to a final concentration of 10 μM. An equal volume (10 nL) of DMSO was added to the vehicle control wells. Following the addition of library compounds, 5 μL of assay buffer was added and the plates were mixed before addition of 5 μL of the protein-coupled bead mixtures; Plates were protected from light and incubated on a rotator for 15 minutes at room temperature. Binding of EGFP-KRIT to HEG1 coupled beads was evaluated using an Accuri C6 flow cytometer.
Data Acquisition. Assay plates were sampled using the HyperCyt™ high throughput flow cytometry platform (Intellicyt; Albuquerque, N. Mex.). During sampling, the probe moves from well to well and samples 1-2 μL from each well pausing 0.4 sec in the air before sampling the next well. The resulting sample stream consisting of 384 separated samples is delivered to an Accuri C6 flow cytometer (BD Biosciences; San Jose, Calif.). Plate data are acquired as time-resolved files that are parsed by software-based well identification algorithms and merged with compound library files. Plate performance was validated using the Z-prime calculation (28).
Compounds that satisfied hit selection criteria in the primary screen were cherry-picked from compound storage plates and tested to confirm activity and determine potency. Dose response data points were fitted by Prism software (GraphPad Software Inc., San Diego, Calif.) using nonlinear least-squares regression in a sigmoidal dose-response model with variable slope, also known as the 4-parameter logistic equation.
Background: In flow cytometry, cells or beads pass a laser one at a time.
Regarding `Oc1ccc2ccccc2c1/C=N/c1ncn[nH]1` [BL-0550, (E)-1-(((1H-1,2,4-triazol-5-yl)imino)methy)naphthalen-2-ol], the “IC50 (μM)” value is “precipitation”. Consider `Oc1ccc2ccccc2c1/C=N/c1cccnc1` [BL-0551, (E)-1-((pyridin-3-ylimino)methyl)naphthalen-2-ol], for which the “IC50 (μM)” value is reported as “precipitation”. As for `COC(=O)c1ccccc1NC(=O)c1c(O)ccc2ccccc12` [BL-0589, methyl 2-(2-hydroxy-1-naphthamido)benzoate], the “IC50 (μM)” value is “precipitation”.

The test is the same for the next values; noted with them: Table 2; flow cytometry-screening assay; NI = no inhibition detected up to 500 μM; read-out: IC50.
What is called IC50 is the concentration at which inhibition is half-maximal. `O=C(O)c1ccccc1/N=C/c1c(O)ccc2ccccc12` [BL-0547 (Hki3), (E)-2-(((2-hydroxynaphthalen-1-yl)methylene)amino)benzoic acid]: the IC50 was determined as 2.9 µM. Same read-out and setting: the result for `Oc1ccc2ccccc2c1/C=N/c1nn[nH]n1` [BL-0549, (E)-1-(((1H-tetrazol-5-yl)imino)methyl)naphthalen-2-ol] reads 3.2 µM; that for `O=C(O)c1ccc(/N=C/c2c(O)ccc3ccccc23)cc1` [BL-0552, (E)-4-(((2-hydroxynaphthalen-1-yl)methylene)amino)benzoic acid], 1.8 µM. As for `O=C(O)c1cccc(/N=C/c2c(O)ccc3ccccc23)c1` [BL-0558, (E)-3-(((2-hydroxynaphthalen-1-yl)methylene)amino)benzoic acid], the IC50 is 3.2 µM. Still for that read-out and setting: under `O=C(O)c1ccccc1NCc1c(O)ccc2ccccc12` [BL-0588, 2-(((2-hydroxynaphthalen-1-yl)methyl)amino)benzoic acid] stands above 500 µM; under `O=C(O)c1ccccc1NC(=O)c1c(O)ccc2ccccc12` [BL-0590, 2-(2-hydroxy-1-naphthamido)benzoic acid], above 500 µM; under `ON=Cc1c(O)ccc2ccccc12` [BL-0591, 2-hydroxy-l-naphthaldehyde oxime], above 500 µM. The same measure, in the same setting: the result for `NCc1c(O)ccc2ccccc12` [BL-0592, 1-(aminomethyl)naphthalen-2-ol] reads above 500 µM. The same measure, in the same setting: under `c1ccc2c(c1)ccc1oncc12` [BL-0593, naphtho[1,2-d]isoxazole] stands above 500 µM; under `O=C(O)c1ccccc1C#Cc1c(O)ccc2ccccc12` [BL-0604, 2-((2-hydroxynaphthalen-1-yl)ethynyl)benzoic acid], above 500 µM. For the compound `O=C(O)c1ccccc1/C=C/c1c(O)ccc2ccccc12` [BL-0605, (E)-2-(2-(2-hydroxynaphthalen-1-yl)vinyl)benzoic acid], the IC50 is above 500 µM. Take `O=C(O)c1ccccc1CCc1c(O)ccc2ccccc12` [BL-0606, 2-(2-(2-hydroxynaphthalen-1-yl)ethyl)benzoic acid]: the IC50 is above 500 µM. Same read-out and setting: under `O=Cc1nccc2ccccc12` [BL-0607, Isoquinoline-1-carbaldehyde] stands above 500 µM; under `O=Cc1cc(-c2ccccc2)ccc1O` [BL-0628 (HKi4), 4-Hydroxy-[1,1′-biphenyl]-3-carbaldehyde], 21.8 µM; under `Oc1ccc2c(/C=N/c3ccccc3)c(O)ccc2c1` [BL-0661 (HKi7), 1-((phenylimino)methyl)naphthalene-2,6-diol], 32 µM. Same read-out and setting: the result for `Cc1ccc2c(C=O)c(O)ccc2c1` [BL-0666 (HKi8), 2-hydroxy-6-methyl-1-naphthaldehyde] reads 5.1 µM; that for `COc1cccc2ccc(O)c(C=O)c12` [BL-0691, 2-hydroxy-8-methoxy-1-naphthaldehyde], 18 µM; that for `O=Cc1c(O)ccc2cccc(O)c12` [BL-0693, 2,8-dihydroxy-1-naphthaldehyde], 45 µM. On the same count and under the same terms, the result for `OC1(c2cccc3ccccc23)COC1` [BL-0695, 3-(naphthalen-1-yl)oxetan-3-ol] reads above 500 µM; that for `CC(=O)c1ccc2c(C=O)c(O)ccc2c1` [BL-0700 (HKi9), 6-acetyl-2-hydroxy-1-naphthaldehyde], 58.6 µM. On to `O=Cc1c(O)ccc2cc(Cl)ccc12` [BL-702 (Hki10), 6-chloro-2-hydroxy-1-naphthaldehyde], for which the IC50 is 3.2 µM. For `OCC(CO)c1c(O)ccc2ccccc12` [BL-703, 2-(2-hydroxynaphthalen-1-yl)propane-1,3-diol], the IC50 was above 500 µM. For the compound `CS(=O)(=O)c1c(O)ccc2ccccc12` [BL-704, 1-(Methylsulfonyl)naphthalen-2-ol], the IC50 was above 500 µM. The same measure, in the same setting: under `C[S+]([O-])c1c(O)ccc2ccccc12` (centres unmarked) [BL-705, 1-(Methylsulfinyl)naphthalen-2-ol] stands above 500 µM; under `Oc1ccc2ccccc2c1C(O)C(F)(F)F` (centres unmarked) [BL-706, 1-(2,2,2-Trifluoro-1-hydroxyethyl)naphthalen-2-ol], above 500 µM; under `CSc1c(O)ccc2ccccc12` [BL-707, 1-(methylthio)naphthalen-2-ol], above 500 µM.

Regarding `CC(O)c1c(O)ccc2ccccc12` (centres unmarked) [BL-0713, 1-(1-hydroxyethyl)naphthalen-2-ol], the IC50 is above 500 µM.

In the case of `O=Cc1c(O)ccc2cc(N3CCCCC3)ccc12` [BL-0736, 2-Hydroxy-6-(piperidin-1-yl)-1-naphthaldehyde], the half-inhibitory concentration (IC50) is 28.8 µM. Same read-out and setting: under `CN(C)c1ccc2c(C=O)c(O)ccc2c1` [BL-0737, 6-(Dimethylamino)-2-hydroxy-1-naphthaldehyde] stands 2.6 µM; under `O=Cc1c(O)ccc2cc(N3CCC3=O)ccc12` [BL-0738, 2-Hydroxy-6-(2-oxoazetidin-1-yl)-1-naphthaldehyde], 30.3 µM; under `C=CCc1ccc2c(C=O)c(O)ccc2c1` [BL-0739, 6-Allyl-2-hydroxy-1-naphthaldehyde], 1.1 µM. Same read-out and setting: the result for `CCc1ccc2c(C=O)c(O)ccc2c1` [BL-0740, 6-Ethyl-2-hydroxy-1-naphthaldehyde] reads 3.9 µM.

As to `C#Cc1ccc2c(C=O)c(O)ccc2c1` [BL-0742, 6-Ethynyl-2-hydroxy-1-naphthaldehyde], the IC50 is 4 µM. Same read-out and setting: the result for `CCCCc1ccc2c(C=O)c(O)ccc2c1` [BL-0743, 6-Butyl-2-hydroxy-1-naphthaldehyde] reads 78.8 µM; that for `CCOC(=O)/C=C/c1ccc2c(C=O)c(O)ccc2c1` [BL-0744, Ethyl (E)-3-(5-formyl-6-hydroxynaphthalen-2-yl)acrylate], 79.3 µM; that for `CC(O)c1ccc2c(C=O)c(O)ccc2c1` (centres unmarked) [BL-0745, 2-Hydroxy-6-(1-hydroxyethyl)-1-naphthaldehyde], 31.9 µM. The same measure, in the same setting: under `N#Cc1ccc2c(C=O)c(O)ccc2c1` [BL-0788, 5-Formyl-6-hydroxy-2-naphthonitrile] stands 3.6 µM. Turning to `CCOc1ccc2c(C=O)c(O)ccc2c1` [BL-0794, 6-Ethoxy-2-hydroxy-1-naphthaldehyde], the IC50 amounted to 4.6 µM.

For the compound `CC#Cc1ccc2c(C=O)c(O)ccc2c1` [BL-0817, 2-Hydroxy-6-(prop-1-yn-1-yl)-1-naphthaldehyde], the IC50 was found to be 15 µM. The same measure, in the same setting: under `O=Cc1c(O)ccc2cc(-c3ccccc3)ccc12` [BL-0818, 2-Hydraxy-6-phenyl-1-naphthaldehyde] stands 3 µM. The same measure, in the same setting: under `O=Cc1c(O)ccc2cc(-c3cccs3)ccc12` [BL-0819, 2-Hydroxy-6-(thiophen-2-yl)-1-naphthaldehyde] stands 1.2 µM; under `CC(NC(=O)c1ccccc1N)c1ccccc1` (centres unmarked) [Compound 4, 2-amino-N-(1-phenylethyl)benzamide], above 500 µM; under `CC(N)c1ccccc1N` (centres unmarked) [Compound 5, 2-(1-aminoethyl)aniline], above 500 µM.

The same test, now with this note: inhibition of the HEG1-KRIT1 interaction, flow cytometry assay.
Turning to `O=Cc1nccc2ccccc12` [BL-0607, Isoquinoline-1-carbaldehyde], the IC50 entry was “no inhibition”.
